The target of one test is human M1 receptor (Homo sapiens (Human), UniProt P11229). As to the kind of experiment: Radioligand (tritiated N-methylscopolamine) binding assay, M1. In short, it runs like this: (§1)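 Ki from displacement of 1.5 nM [3H]N-methylscopolamine on membranes of CHO cells expressing each human receptor. Twelve compound concentrations (10 μM to […]), 90 min at 37° C in 50 mM HEPES, 100 mM NaCl, 5 mM MgCl2, 1 mM EDTA, pH 7.4. Bound ligand was captured by PEI-treated glass-fiber filtration and counted.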
Chain of human M1 receptor (P11229 whole entry): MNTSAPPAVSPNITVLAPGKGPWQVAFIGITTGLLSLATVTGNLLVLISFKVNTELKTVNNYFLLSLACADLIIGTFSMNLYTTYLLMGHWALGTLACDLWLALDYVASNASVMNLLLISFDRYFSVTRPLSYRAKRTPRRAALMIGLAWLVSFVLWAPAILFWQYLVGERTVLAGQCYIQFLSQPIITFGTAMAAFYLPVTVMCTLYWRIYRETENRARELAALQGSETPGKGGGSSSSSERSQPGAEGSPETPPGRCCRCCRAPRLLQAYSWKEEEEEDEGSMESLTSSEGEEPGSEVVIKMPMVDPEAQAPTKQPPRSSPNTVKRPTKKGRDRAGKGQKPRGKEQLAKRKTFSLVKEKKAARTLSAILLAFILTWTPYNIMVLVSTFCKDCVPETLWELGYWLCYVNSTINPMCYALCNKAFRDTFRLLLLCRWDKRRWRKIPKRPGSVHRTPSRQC

For a further test, the target named is human M2 receptor (Homo sapiens (Human), UniProt P08172). As to the kind of experiment: Radioligand (tritiated N-methylscopolamine) binding assay, M2. In short, it runs like this:
as §1

The target in the next test is human M3 receptor (Homo sapiens (Human), UniProt P20309). Nature of the test: Radioligand (tritiated N-methylscopolamine) binding assay, M3. Conditions: CHO cell membranes expressing human M3; 1.5 nM tritiated N-methylscopolamine; 90 min, 37° C.; read-out: Ki against M3 receptor (Table 21, M3). In short, it runs like this:
as §1

Another test concerns the target human M4 receptor (Homo sapiens (Human), UniProt P08173). As to the kind of experiment: Radioligand (tritiated N-methylscopolamine) binding assay, M4. The conditions noted are these: Ki against the M4 receptor; membranes from CHO cells expressing human M4; tritiated N-methylscopolamine 1.5 nM; read-out: Ki. In short, it runs like this: as §1
The target of another test is human M5 receptor (Homo sapiens (Human), UniProt P08912). Nature of the test: Radioligand (tritiated N-methylscopolamine) binding assay, M5. In short, it runs like this: as §1
Chain of human M5 receptor (P08912 whole entry): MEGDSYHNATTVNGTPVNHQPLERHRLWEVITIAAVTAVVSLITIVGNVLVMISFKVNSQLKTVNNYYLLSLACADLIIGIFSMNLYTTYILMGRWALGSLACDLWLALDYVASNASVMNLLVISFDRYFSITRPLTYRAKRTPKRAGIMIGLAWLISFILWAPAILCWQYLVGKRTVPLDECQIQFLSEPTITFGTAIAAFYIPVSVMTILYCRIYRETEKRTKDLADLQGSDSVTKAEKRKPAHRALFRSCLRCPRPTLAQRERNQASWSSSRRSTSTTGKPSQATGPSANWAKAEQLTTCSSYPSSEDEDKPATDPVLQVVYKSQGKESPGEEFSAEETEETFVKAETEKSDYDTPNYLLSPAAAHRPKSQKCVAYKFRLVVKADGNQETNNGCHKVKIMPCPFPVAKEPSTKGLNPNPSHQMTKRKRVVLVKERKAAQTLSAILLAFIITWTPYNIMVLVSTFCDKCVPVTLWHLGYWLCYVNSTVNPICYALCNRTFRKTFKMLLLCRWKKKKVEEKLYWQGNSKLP
Setting [1] is: CHO cell membranes expressing human M1, 1.5 nM tritiated N-methylscopolamine, 90 min, 37° C., read-out: Ki against M1 receptor (Table 21, M1).
Where [2] appears, read: CHO cell membranes expressing human M2, 1.5 nM tritiated N-methylscopolamine, 90 min, 37° C., read-out: Ki against M2 receptor (Table 21, M2).
Where [3] appears, read: CHO cell membranes expressing human M5, 1.5 nM tritiated N-methylscopolamine, 90 min, 37° C., read-out: Ki against M5 receptor (Table 21, M5).

Like-named read-outs stand apart in the source and are kept apart here. A value given as a limit tells only on which side of the number the result lay.

Chain of human M3 receptor (P20309 whole entry): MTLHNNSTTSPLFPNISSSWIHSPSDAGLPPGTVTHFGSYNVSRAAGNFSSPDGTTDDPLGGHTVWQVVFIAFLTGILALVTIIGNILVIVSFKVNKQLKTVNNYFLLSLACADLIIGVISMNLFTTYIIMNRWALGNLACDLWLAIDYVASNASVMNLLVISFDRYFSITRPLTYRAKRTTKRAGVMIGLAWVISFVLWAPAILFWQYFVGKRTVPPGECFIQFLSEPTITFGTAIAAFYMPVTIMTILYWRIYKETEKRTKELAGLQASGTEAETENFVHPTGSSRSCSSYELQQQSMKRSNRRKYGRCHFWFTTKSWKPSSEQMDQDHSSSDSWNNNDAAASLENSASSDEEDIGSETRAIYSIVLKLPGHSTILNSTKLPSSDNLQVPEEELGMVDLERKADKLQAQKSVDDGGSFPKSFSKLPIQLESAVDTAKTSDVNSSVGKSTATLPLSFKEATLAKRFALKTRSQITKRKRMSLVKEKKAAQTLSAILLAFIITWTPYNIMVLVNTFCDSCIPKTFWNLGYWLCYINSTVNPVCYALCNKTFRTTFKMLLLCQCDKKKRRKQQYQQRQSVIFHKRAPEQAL
Chain of human M4 receptor (P08173 whole entry): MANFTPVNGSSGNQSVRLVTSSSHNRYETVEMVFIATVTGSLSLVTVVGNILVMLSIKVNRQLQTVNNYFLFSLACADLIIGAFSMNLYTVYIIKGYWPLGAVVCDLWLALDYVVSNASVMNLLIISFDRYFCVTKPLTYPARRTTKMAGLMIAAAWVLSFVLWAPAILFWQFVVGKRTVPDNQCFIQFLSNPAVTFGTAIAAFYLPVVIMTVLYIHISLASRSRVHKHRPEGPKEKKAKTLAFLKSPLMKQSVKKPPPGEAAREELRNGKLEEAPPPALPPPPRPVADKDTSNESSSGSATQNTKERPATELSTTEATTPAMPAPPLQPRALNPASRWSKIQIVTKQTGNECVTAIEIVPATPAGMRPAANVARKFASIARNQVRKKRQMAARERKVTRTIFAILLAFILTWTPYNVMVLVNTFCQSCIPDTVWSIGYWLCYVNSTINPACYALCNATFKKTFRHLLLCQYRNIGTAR
Chain of human M2 receptor (P08172 whole entry): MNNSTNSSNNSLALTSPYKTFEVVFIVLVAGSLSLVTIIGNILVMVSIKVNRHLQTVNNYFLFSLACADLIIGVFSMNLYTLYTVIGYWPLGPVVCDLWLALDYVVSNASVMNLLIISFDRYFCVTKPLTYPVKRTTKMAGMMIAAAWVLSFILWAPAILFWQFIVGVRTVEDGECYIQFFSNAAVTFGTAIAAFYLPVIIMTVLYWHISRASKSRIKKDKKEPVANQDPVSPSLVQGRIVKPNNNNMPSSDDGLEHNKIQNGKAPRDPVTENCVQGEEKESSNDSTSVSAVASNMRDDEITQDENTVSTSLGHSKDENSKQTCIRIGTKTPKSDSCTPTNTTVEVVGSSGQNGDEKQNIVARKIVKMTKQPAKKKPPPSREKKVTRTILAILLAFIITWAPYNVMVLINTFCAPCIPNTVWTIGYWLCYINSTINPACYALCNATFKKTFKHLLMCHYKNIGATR

Regarding `C[C@@H]1CN(c2ccc(C#N)cc2)C[C@H](C)N1C(=O)NCCC1CCN(Cc2ccccc2)CC1` [22-2], the Ki (commonly the equilibrium dissociation constant of an inhibitor or competing ligand from its target) at human M1 receptor (setting [1]) is over 1000 nM; at human M2 receptor (setting [2]), 100 to 1000 nM; on human M3 receptor, over 1000 nM; at human M4 receptor, under 10 nM; on human M5 receptor (setting [3]) it was over 1000 nM.
For the compound `C[C@@H]1CN(c2ccc(C#N)cc2F)C[C@H](C)N1C(=O)NCCC1CCN(Cc2ccccc2)CC1` [22-3], the Ki was over 1000 nM at human M1 receptor (setting [1]); 100 to 1000 nM on human M2 receptor (setting [2]); over 1000 nM on human M3 receptor; under 10 nM on human M4 receptor; over 1000 nM on human M5 receptor (setting [3]).
`C[C@@H]1CN(c2ccc(C#N)c(F)c2)C[C@H](C)N1C(=O)NCCC1CCN(Cc2ccccc2)CC1` [22-4]: the inhibitory constant (Ki) at human M1 receptor (setting [1]) was over 1000 nM; at human M2 receptor (setting [2]), 10 to 100 nM; on human M3 receptor it was over 1000 nM; on human M4 receptor, under 10 nM; on human M5 receptor (setting [3]) it was over 1000 nM.
On to `C[C@@H]1CN(c2ncc(F)cc2F)C[C@H](C)N1C(=O)NCCC1CCN(Cc2ccccc2)CC1` [22-5, (2R,6S)-N-[2-(1-benzylpiperidin-4-yl)ethyl]-4-(3,5-difluoropyridin-2-y1)-2,6-dimethylpiperazine-1-carboxamide], for which the inhibitory constant (Ki) at human M1 receptor (setting [1]) was 100 to 1000 nM; at human M2 receptor (setting [2]), 10 to 100 nM; at human M3 receptor it was over 1000 nM; at human M4 receptor, under 10 nM; on human M5 receptor (setting [3]), 100 to 1000 nM.
Consider `C[C@@H]1CN(c2cc(F)c(F)c(Cl)c2)C[C@H](C)N1C(=O)NCCC1CCN(Cc2ccccc2)CC1` [22-7], for which the inhibitory constant (Ki) was 100 to 1000 nM at human M1 receptor (setting [1]); 10 to 100 nM at human M2 receptor (setting [2]); 100 to 1000 nM on human M3 receptor; under 10 nM on human M4 receptor; 100 to 1000 nM at human M5 receptor (setting [3]).
As for `C[C@@H]1CN(c2cnc(Cl)c(F)c2)C[C@H](C)N1C(=O)NCCC1CCN(Cc2ccccc2)CC1` [22-8], the Ki is 100 to 1000 nM at human M1 receptor (setting [1]); 10 to 100 nM at human M2 receptor (setting [2]); over 1000 nM at human M3 receptor; under 10 nM at human M4 receptor; over 1000 nM at human M5 receptor (setting [3]).
With `C[C@@H]1CN(c2cc(F)c(C#N)c(F)c2)C[C@H](C)N1C(=O)NCCC1CCN(Cc2ccccc2)CC1` [22-9], the Ki was 100 to 1000 nM at human M1 receptor (setting [1]); 10 to 100 nM at human M2 receptor (setting [2]); over 1000 nM at human M3 receptor; under 10 nM at human M4 receptor; over 1000 nM on human M5 receptor (setting [3]).
For the compound `C[C@@H]1CN(c2cc(F)c(C#N)cc2F)CCN1C(=O)NCCC1CCN(Cc2ccccc2)CC1` [22-10], the Ki is over 1000 nM at human M1 receptor (setting [1]); 100 to 1000 nM at human M2 receptor (setting [2]); over 1000 nM on human M3 receptor; under 10 nM on human M4 receptor; over 1000 nM on human M5 receptor (setting [3]).
`C[C@@H]1CN(c2cc(F)c(C#N)c(F)c2)CCN1C(=O)NCCC1CCN(Cc2ccccc2)CC1` [22-12]: the Ki was over 1000 nM at human M1 receptor (setting [1]); 10 to 100 nM on human M2 receptor (setting [2]); over 1000 nM at human M3 receptor; under 10 nM on human M4 receptor; 100 to 1000 nM at human M5 receptor (setting [3]).
On to `C[C@@H]1CN(c2cc(F)c(Cl)c(F)c2)CCN1C(=O)NCCC1CCN(Cc2ccccc2)CC1` [22-13], for which the Ki on human M1 receptor (setting [1]) is 100 to 1000 nM; at human M2 receptor (setting [2]) it was 10 to 100 nM; at human M3 receptor it was 100 to 1000 nM; at human M4 receptor it was under 10 nM; at human M5 receptor (setting [3]), 100 to 1000 nM.
As for `C[C@@H]1CN(c2ccc(Cl)c(F)c2)CCN1C(=O)NCCC1CCN(Cc2ccccc2)CC1` [22-14], the Ki at human M1 receptor (setting [1]) was 100 to 1000 nM; at human M2 receptor (setting [2]), 10 to 100 nM; at human M3 receptor, 100 to 1000 nM; on human M4 receptor, under 10 nM; at human M5 receptor (setting [3]), 100 to 1000 nM.
As to `C[C@@H]1CN(c2ccc(C#N)c(F)c2)CCN1C(=O)NCCC1CCN(Cc2ccccc2)CC1` [22-15], the inhibitory constant (Ki) on human M1 receptor (setting [1]) was 100 to 1000 nM; at human M2 receptor (setting [2]), 10 to 100 nM; on human M3 receptor it was over 1000 nM; on human M4 receptor, under 10 nM; on human M5 receptor (setting [3]), 100 to 1000 nM.
Regarding `C[C@@H]1CN(c2ccc(C#N)c(OC(F)(F)F)c2)CCN1C(=O)NCCC1CCN(Cc2ccccc2)CC1` [22-17], the Ki at human M1 receptor (setting [1]) was 100 to 1000 nM; on human M2 receptor (setting [2]), 10 to 100 nM; at human M3 receptor it was over 1000 nM; at human M4 receptor, under 10 nM; at human M5 receptor (setting [3]) it was 100 to 1000 nM.
With `C[C@@H]1CN(c2cnc(C(F)(F)F)cn2)CCN1C(=O)NCCC1CCN(Cc2ccccc2)CC1` [22-22], the inhibitory constant (Ki) is 100 to 1000 nM at human M1 receptor (setting [1]); 10 to 100 nM at human M2 receptor (setting [2]); over 1000 nM at human M3 receptor; under 10 nM at human M4 receptor; over 1000 nM at human M5 receptor (setting [3]).
With `C[C@@H]1CN(c2cnc(C(F)(F)F)cn2)C[C@H](C)N1C(=O)NCCC1CCN(Cc2ccccc2)CC1` [22-23], the Ki on human M1 receptor (setting [1]) is 100 to 1000 nM; at human M2 receptor (setting [2]), under 10 nM; on human M3 receptor it was 100 to 1000 nM; on human M4 receptor, under 10 nM; at human M5 receptor (setting [3]), 100 to 1000 nM.
On to `COc1ccc(N2C[C@@H](C)N(C(=O)NCCC3CCN(Cc4ccccc4)CC3)[C@@H](C)C2)cc1C#N` [22-24], for which the Ki at human M1 receptor (setting [1]) is 100 to 1000 nM; at human M2 receptor (setting [2]) it was 10 to 100 nM; on human M3 receptor, over 1000 nM; at human M4 receptor, under 10 nM; at human M5 receptor (setting [3]), over 1000 nM.
On to `O=C(NCCC1CCN(Cc2ccccc2)CC1)N1CCN(c2cnc(C(F)(F)F)cn2)CC1` [22-25, N-[2-(1-benzylpiperidin-4-yl)ethyl]-4-[5-(trifluoromethyl)pyrazin-2-yl]piperazine-1-carboxamide], for which the Ki at human M1 receptor (setting [1]) is over 1000 nM; at human M2 receptor (setting [2]), 10 to 100 nM; at human M3 receptor, over 1000 nM; at human M4 receptor, under 10 nM; at human M5 receptor (setting [3]) it was over 1000 nM.
On to `C[C@@H]1CN(c2cc(F)nc(F)c2)CCN1C(=O)NCCC1CCN(Cc2ccccc2)CC1` [22-30], for which the inhibitory constant (Ki) at human M1 receptor (setting [1]) is 100 to 1000 nM; on human M2 receptor (setting [2]) it was 10 to 100 nM; on human M3 receptor, over 1000 nM; at human M4 receptor, under 10 nM; at human M5 receptor (setting [3]), over 1000 nM.
For the compound `C[C@@H]1CN(c2ccc(C#N)c(C(F)(F)F)c2)CCN1C(=O)NCCC1CCN(Cc2ccccc2)CC1` [22-31], the inhibition constant Ki at human M1 receptor was 10 to 100 nM; at human M2 receptor it was 10 to 100 nM; on human M3 receptor, over 1000 nM; at human M4 receptor, under 10 nM; on human M5 receptor, 100 to 1000 nM.
Regarding `COc1cc(N2CCN(C(=O)NCCC3CCN(Cc4ccccc4)CC3)[C@H](C)C2)cc(F)c1C#N` [22-32], the Ki was 100 to 1000 nM at human M1 receptor (setting [1]); 100 to 1000 nM at human M2 receptor (setting [2]); over 1000 nM at human M3 receptor; under 10 nM at human M4 receptor; 100 to 1000 nM at human M5 receptor (setting [3]).
Regarding `C[C@@H]1CN(c2ncc(C(F)(F)F)c(N)n2)C[C@@H](C)N1C(=O)NCCC1CCN(Cc2ccccc2)CC1` [26-1, (2R,6R)-4-[4-amino-5-(trifluoromethyl)pyrimidin-2-yl]-N-[2-(1-benzylpiperidin-4-yl)ethyl]-2,6-dimethylpiperazine-1-carboxamide], the Ki on human M1 receptor (setting [1]) was 100 to 1000 nM; on human M2 receptor (setting [2]) it was 10 to 100 nM; on human M3 receptor, over 1000 nM; on human M4 receptor, under 10 nM; at human M5 receptor (setting [3]), over 1000 nM.
For `C[C@@H]1CN(c2ncc(C#N)cn2)C[C@@H](C)N1C(=O)NCCC1CCN(Cc2ccccc2)CC1` [26-2], the inhibitory constant (Ki) is over 1000 nM at human M1 receptor (setting [1]); 100 to 1000 nM on human M2 receptor (setting [2]); over 1000 nM on human M3 receptor; under 10 nM at human M4 receptor; over 1000 nM at human M5 receptor (setting [3]).
For the compound `C[C@@H]1CN(c2cnc(C(F)(F)F)cn2)C[C@@H](C)N1C(=O)NCCC1CCN(Cc2ccccc2)CC1` [26-4, (2R,6R)-N-[2-(1-benzylpiperidin-4-yl)ethyl]-2,6-dimethyl-4-[5-(trifluoromethyl)pyrazin-2-yl]piperazine-1-carboxamide], the inhibition constant (Ki) is over 1000 nM at human M1 receptor (setting [1]); 100 to 1000 nM at human M2 receptor (setting [2]); over 1000 nM at human M3 receptor; under 10 nM at human M4 receptor; over 1000 nM at human M5 receptor (setting [3]).
For the compound `C[C@@H]1CN(c2cnc(C(F)(F)F)nc2)C[C@@H](C)N1C(=O)NCCC1CCN(Cc2ccccc2)CC1` [26-6], the Ki on human M1 receptor (setting [1]) was 10 to 100 nM; on human M2 receptor (setting [2]), 10 to 100 nM; at human M3 receptor, 100 to 1000 nM; on human M4 receptor, under 10 nM; at human M5 receptor (setting [3]), 100 to 1000 nM.

These data come from patent publication US11033539B2, “Compounds of formulas (VII), (VIII), (IX), (XI), (XII), (XIII), and (XIV) as muscarinic receptor 4(M4) antagonists for treating neurological diseases” (Neurocrine Biosciences, Inc., priority 2015, dated 2021).
